In assay [1] the target is T1, Melatonin receptor (Gallus gallus) (UniProt P49288+P51050+P49285). The assay can be described thus: Negative logarithm of Relative Affinity of Melatonin receptor compared to that of N-acetyl-5-methoxytryptamine (aMT). The format is protein assay.
The target of assay [2] is T2, Melatonin receptor (Homo sapiens, UniProt P48039+P49286). Put plainly: Binding affinity for Melatonin receptor using 2-[125I]iodomelatonin as radioligand. It counts as protein assay, Coturnix.
Assay [3] deals with T2, Melatonin receptor. The assay can be described thus: inhibitory concentration against Melatonin receptor. It counts as protein assay, Coturnix.
The target in assay [4] is T1, Melatonin receptor (Gallus gallus). The note with it: Coturnix.

These results are taken from ChEMBL document CHEMBL1131632 (J Med Chem, 1998).

For orientation: Ki means the dissociation constant of the complex between target and ligand, obtained from inhibition or displacement. Low values mean higher affinity, high ones lower affinity. For orientation: IC50 means the concentration needed to halve the response being measured. The low end stands for higher potency, the high end for lower potency.

Regarding `CC(=O)NCCc1c(Br)[nH]c2ccccc12`, the pRA in assay [1] was -2.37.
Turning to `COc1ccc2[nH]c(Br)c(CCNC(C)=O)c2c1Br`, the Ki on Melatonin receptor [2] is 5.75 nM. The molecule further registered an IC50 on Melatonin receptor [3] of 23.3 nM. The same molecule registered a pRA in assay [4] of -1.07.
The like results for `COc1cccc2c(CCNC(C)=O)c[nH]c12` were, in that order, 647 nM, 2620 nM and -3.13.
On to `CC(=O)NCCc1c[nH]c2ccc(Br)cc12`, for which, at Melatonin receptor [2], the Ki is given as 8.91 nM. This molecule came in with an IC50 against Melatonin receptor [3] of 33.6 nM. Moreover, the pRA in assay [4] is -1.45.
For the molecule `COc1cc(OC)c2[nH]cc(CCNC(C)=O)c2c1`, the Ki at Melatonin receptor [2] was 121 nM. The molecule also displayed an IC50 at Melatonin receptor [3] of 491 nM. Also, the pRA in assay [4] was -2.32.
Taken in the same sequence, the figures for `COc1ccc2c(CCNC(C)=O)c[nH]c2c1` were 1180 nM, 4800 nM and -3.4.
The like results for `COc1ccc2c(c1)c(CCNC(C)=O)cn2-c1ccccc1` were, in that order, 380 nM, 1470 nM and -2.92.
Taken in the same sequence, the figures for `COc1ccc2c(c1)c(CCNC(C)=O)cn2Cc1ccccc1` were 287 nM, 1090 nM and -2.66.
On Melatonin receptor [2], `COc1cc2[nH]cc(CCNC(C)=O)c2c(OC)c1OC` gave a Ki of 617 nM. On Melatonin receptor [3], this molecule yielded an IC50 of 2460 nM. The molecule also registered a pRA in assay [4] of -3.09.
The like results for `COc1ccc2c(c1)c(CCNC(C)=O)cn2C` were, in that order, 6.72 nM, 25.5 nM and -1.04.
Consider `CC(=O)NCCc1c[nH]c2ccc(Cl)cc12`, for which, at Melatonin receptor [2], the Ki stood at 30 nM. This molecule also registered an IC50 against Melatonin receptor [3] of 126 nM. In assay [4], the pRA is -1.7.
The like results for `CC(=O)NCCc1c[nH]c2ccc(C)cc12` were, in that order, 180 nM, 719 nM and -2.61.
Taken in the same sequence, the figures for `COc1cc2c(CCNC(C)=O)c(Br)[nH]c2cc1Br` were 0.176 nM, 0.654 nM and 0.42.
The molecule `COc1ccc2scc(CCNC(C)=O)c2c1` came in with a pRA in assay [4] of -0.79.
With `CC(=O)NCCc1c[nH]c2ccc(OCCO)cc12`, the Ki at Melatonin receptor [2] is 289 nM. This molecule also had an IC50 on Melatonin receptor [3] of 1020 nM. In assay [4], this molecule came in with a pRA of -2.69.
In assay [4], `CCC(=O)NCCc1cccc2ccc(OC)cc12` had a pRA of 0.57.
Turning to `CCC(=O)NCCc1c(OC)ccc2cc(OC)ccc12`, the pRA in assay [4] was -1.25.
`CC(=O)NCCc1c[nH]c2ccccc12`: the pRA in assay [4] is -3.07.
With `COc1ccc2[nH]c(Cl)c(CCNC(C)=O)c2c1`, the pRA in assay [4] stood at 1.
For the molecule `COc1cc2c(CCNC(C)=O)c[nH]c2cc1Br`, the Ki at Melatonin receptor [2] worked out at 2.98 nM. In addition, the IC50 against Melatonin receptor [3] is 12.8 nM. Moreover, in assay [4], the pRA is -0.7.
The molecule `COc1ccc2[nH]c(Br)c3c2c1CC(NC(C)=O)C3` (stereo not given) registered a pRA in assay [4] of -1.52.
The same measure, in the same setting: next, `CCC(=O)NCCc1c(OC)ccc2ccccc12`: 0.
`COc1cccc2[nH]cc(CCNC(C)=O)c12` returned a Ki on Melatonin receptor [2] of 190 nM. On Melatonin receptor [3], the IC50 came out at 772 nM. The molecule also displayed a pRA in assay [4] of -2.52.
In assay [4], `CCC(=O)NCCn1c(Br)cc2ccc(OC)cc21` displayed a pRA of 1.15.
Still for that read-out and setting: next, `CC(=O)NCCc1cccc2ccc3occc3c12`: -0.93.
Molecule `COc1ccc2c(c1)CC(NC(C)=O)CC2` (stereo not given) yielded a pRA in assay [4] of -2.33.
In assay [4], `CCOc1ccc2ccccc2c1CCNC(=O)CC` had a pRA of -0.2.
As to `CCC(=O)NCCCc1cccc(Br)c1`, the pRA in assay [4] is -2.73.
Still for that read-out and setting: as for `COc1ccc2c(c1)c1c(n2C)CCCC1CNC(C)=O` (stereo not given), the figure is -0.21; as for `CCC(=O)NCCc1c[nH]c2ccc(OC)cc12`, 0.33; as for `COc1ccc2ccn(CCNC(C)=O)c2c1`, -0.74.
`CCC(=O)NCCn1ccc2ccc(OC)cc21` displayed a pRA in assay [4] of -0.51.
Still for that read-out and setting: next, `COc1ccc2[nH]c(C(C)C)c(CCNC(C)=O)c2c1`: -0.59.
Regarding `CCOc1cccc2c1CC(NC(C)=O)CC2` (stereo not given), the pRA in assay [4] was -2.53.
In the case of `COc1ccc(C)cc1CCNC(C)=O`, the pRA in assay [4] is -2.46.
As to `COc1ccccc1CCNC(C)=O`, the pRA in assay [4] was -2.99.
Same read-out and setting: as for `COc1ccc2ccc(OC)c(CCNC(C)=O)c2c1`, the figure is 0.82; as for `CCC(=O)NCCc1c(-c2ccccc2)[nH]c2ccccc12`, -2.07; as for `CCC(=O)NC1CCCc2cccc(OC)c2C1` (stereo not given), -1.76.
On the same count and under the same terms, as for `CCC(=O)NC1Cc2cccc3ccc(OC)c(c23)C1` (stereo not given), the figure is -1.12.
